Assay results reported in patent US11576930B2, “Methods and compositions for treatment of multi-drug resistant tumors” (priority 2017, dated 2023).

What was measured:
HCC97L cells [1] = test: Cell morphology and MTT cytotoxicity of agent alone; type: cell-based, human; set-up: dose or concentration left out as unconfirmed; conditions: AZI
Experimental: (§1) Then, HCC97L (3×10^3 well^−1), Hep3B (4×10^3 well^−1), PLC (4×10^3 well^−1), CNE1 (1.75×10^3 well^−1), CNE2 (3.5×10^3 well^−1), HONE1 (2×10^3 well^−1) and SUNE1 (2×10^3 well^−1) were seeded in 96-well plates ([…]) and allowed to attach for 24 h. After that, human liver cancer cell lines were treated with 3 chemotherapeutic drugs separately at different concentrations (as indicated in FIG. 2) in the presence of the anti-mycoplasma antibiotics for 48 h. […] In the P37-ANXA2 interruption experiment, A2PP was dissolved in DMSO and HCC97L cells were pretreated with A2PP (as indicated in FIG. 3) 24 h before GEM or MX treatment. […] (5 mg/ml final concentration; MP Biomedicals, LLC, CA, USA) was added to each well. After 4 h incubation at 37° C., the medium was removed and 100 μL/well DMSO (GBCBIO Technologies, Guangzhou, China) was added. The plates were mixed by a thermomixer for 5 min at RT. Absorbance measures were made in a microplate reader (iMark, Bio-Rad Laboratories, CA, USA) at 570/655 nm.

Hep3B = test: as above; type: cell-based, human; set-up: dose or concentration left out as unconfirmed; conditions: AZI
Experimental: Then, HCC97L (3×10^3 well^−1), Hep3B (4×10^3 well^−1), PLC (4×10^3 well^−1), CNE1 (1.75×10^3 well^−1), CNE2 (3.5×10^3 well^−1), HONE1 (2×10^3 well^−1) and SUNE1 (2×10^3 well^−1) were seeded in 96-well plates (1004/well) and allowed to attach for 24 h. After that, human liver cancer cell lines were treated with 3 chemotherapeutic drugs separately at different concentrations (as indicated in FIG. 2) in the presence of the anti-mycoplasma antibiotics for 48 h. […] 104 of MTT (5 mg/ml final concentration; MP Biomedicals, LLC, CA, USA) was added to each well. After 4 h incubation at 37° C., the medium was removed and 100 μL/well DMSO (GBCBIO Technologies, Guangzhou, China) was added. The plates were mixed by a thermomixer for 5 min at RT. Absorbance measures were made in a microplate reader (iMark, Bio-Rad Laboratories, CA, USA) at 570/655 nm.

mycoplasma = test: Mycoplasma detection using quantitative real-time PCR in cancer cell lines; type: cell-based; set-up: dose or concentration left out as unconfirmed; conditions: AZI
Experimental: Total DNA was extracted from 5×10^5 cells from each group by digestion at 70° C. for 10 min in 0.5% Tween-20, 50 mM Tris (pH 8.5), 1 mM EDTA, and 200 mg/L proteinase K, followed by phenol/chloroform/isoamyl alcohol extraction and sodium acetate precipitation. DNA precipitates were washed with 70% ethanol, dried, and dissolved in 20 μL of sterile water. The extracted DNA ([…], 1.2 μg) from the cells was added to […] of the reaction solution, containing PCR buffer (SuperRealPreMix, SYBR Green; Tiangen Biotech, Beijing, China) and primers pairs for mycoplasma detection and reference control (β-actin) with a final concentration of 0.12 μM for each primer, to a total volume of 10 μL. Quantitative real-time PCR (qPCR) was performed as the following profile: 95° C. for 1 min (preincubation), followed by 40 cycles at 95° C. for 10 s (denaturation), 60° C. for 30 s (annealing and elongation). The primers (Table 1) for mycoplasma detection were gifts from Prof. Zhongning Lin (School of Public Health, Xiamen University) including two forward primers for universal mycoplasmal detection, one forward primer to detect Myco M. pirum., one for Myco A. laidlawii. detection and a mix of degenerate primers to work as the reverse primers.

PLC/PRF/5 cell line = test: MTT assay, sensitivity to chemotherapeutic drugs with anti-mycoplasma antibiotics; type: cell-based, human; conditions: non-cytotoxic concentration of MXF or AZI; chemotherapeutic 48 h
Experimental: as §1

Hep3B cells = test: as above; type: cell-based, human; conditions: non-cytotoxic concentration of MXF or AZI; chemotherapeutic 48 h
Experimental: as §1

HCC97L cells [2] = test: MTT assay, sensitivity to chemotherapeutic drugs with anti-mycoplasma agent or A2PP; type: cell-based, human; conditions: non-cytotoxic concentration of MXF or AZI; chemotherapeutic 48 h
Experimental: as §1

CNE2 = type: cell-based, human
Experimental: as §1

SUNE1 cells = type: cell-based, human
Experimental: as §1

HONE1 cells = type: cell-based, human
Experimental: as §1

With CC[C@H]1OC(=O)[C@H](C)[C@@H](O[C@H]2C[C@@](C)(OC)[C@@H](O)[C@H](C)O2)[C@H](C)[C@@H](O[C@@H]2O[C@H](C)C[C@H](N(C)C)[C@H]2O)[C@](C)(O)C[C@@H](C)CN(C)[C@H](C)[C@@H](O)[C@]1(C)O [AZI, azithromycin] the “toxicity to cells (cell morphology and MTT assay)” value (HCC97L cells [1]) was “non-toxic”, the “toxicity to cells (cell morphology and MTT assay)” value (Hep3B) was “non-toxic” and the “anti-mycoplasma effect (Real Time PCR)” value (mycoplasma; HCC97L cells) was “removed mycoplasma significantly”. For the same compound, the “anti-mycoplasma effect (Real Time PCR)” value (mycoplasma; Hep3B cells) was “removed mycoplasma significantly”, the “anti-mycoplasma effect (Real Time PCR)” value (mycoplasma; PLC/PRF/5 cell line) was “mycoplasma remained intact” and the “efficacy of the anti-tumor drugs (CDDP, GEM, MX) in PLC/PRF/5 cell line” value (PLC/PRF/5 cell line) was “neither MXF nor AZI improved the efficacy”. The “sensitivity of Hep3B cells to GEM” value (Hep3B cells) was “enhanced”, the “sensitivity of Hep3B cells to MX” value (Hep3B cells) was “enhanced” and the “sensitivity of HCC97L cells to CDDP” value (HCC97L cells [2]) was “enhanced”. The “sensitivity of HCC97L cells to GEM” value (HCC97L cells [2]) was “enhanced” and the “sensitivity of HCC97L cells to MX” value (HCC97L cells [2]) was “enhanced”.

In the case of COc1c(N2C[C@@H]3CCCN[C@@H]3C2)c(F)cc2c(=O)c(C(=O)O)cn(C3CC3)c12 [MXF, Moxifloxacin], the “sensitivity of CNE2 cells to 5-FU” value (CNE2) is reported as “enhanced”, the “sensitivity of SUNE1 cells to 5-FU” value (SUNE1 cells) is reported as “improved” and the “sensitivity of HONE1 cells to 5-FU” value (HONE1 cells) is reported as “enhanced”.
